# Laboratory results: ChEMBL document CHEMBL5046247, “Hexahydroazulene-2(1H)-one Sesquiterpenoids with Bridged Cyclobutane, Oxetane, and Tetrahydrofuran Rings from the Stems of Daphne papyracea with α-Glycosidase Inhibitory Activity” (J Nat Prod, 2022)
# Test: Inhibition of Saccharomyces cerevisiae alpha-glucosidase assessed as reduction in PNP formation using alpha-PNPG as substrate incubated for 30 mins by microplate reader assay
row,Compound,IC50
1,O=C(CCCCc1ccccc1)c1ccc(O)cc1,126 µM
2,O=C(CC[C@H](O)C(=O)c1ccc(O)cc1)c1ccccc1,139 µM
3,CC1=C2[C@@H](O)[C@@]3(C)CC(=O)[C@@]4(C)[C@]2(CC1=O)C[C@]43C,159 µM
4,CC1=C2C[C@H](C(C)C)C[C@@H]3O[C@@]2(CC1=O)[C@@]3(C)O,102 µM
5,O=C(/C=C/CCc1ccccc1)c1ccc(O)cc1,43.3 µM
6,CO[C@@H](CCc1ccccc1)CC(=O)c1ccccc1,145 µM
7,C[C@H]1O[C@H](O[C@H]2[C@H](O)[C@@H](O)[C@@H](O[C@H]3[C@H](O)[C@@H](O)C(O)O[C@@H]3CO)O[C@@H]2CO)[C@H](O)[C@@H](O)[C@@H]1N[C@H]1C=C(CO)[C@@H](O)[C@H](O)[C@H]1O (some centres not stated) [ACARBOSE],578 µM
